Test results: patent US20230233569A1 (Revolution Medicines, Inc., priority 2020, published 2023)
Values joined by “and” are separate entries in the source; they are usually repeats but may differ in a detail not shown here. Equal values may be shown once. Read-outs that look alike come from different tables or passages of the source.

Legend:
NCI-H358 (K-Ras G12C) = test: CellTiter-Glo cell viability assay, 5-day treatment; format: cell-based; settings: Homo sapiens, NCI-H358, 120 h, 5-day treatment; read-out: H358 Cell Viability assay data (K-Ras G12C, IC50)
Outline: (§1)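 Five-day compound treatment of plated cells; luminescent read after ~30 min at RT. Percent-of-DMSO data fit to a four-parameter logistic model.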

Capan-1 (K-Ras G12V) = test: as above; format: cell-based; settings: Homo sapiens, CAPAN-1, 120 h, 5-day treatment; read-out: Capan-1 Cell Viability assay data (K-Ras G12V, IC50)
Outline: as §1

KRAS G12V = KRAS G12V (Homo sapiens, UniProt P01116+P62937, G12V); test: Disruption of BRAF RBD interaction with Ras (FRET / MOA assay, with Cyclophilin A); format: biochemical
Chain of KRAS G12V (P01116 1-169 isoform P01116-2 G12V limits assumed): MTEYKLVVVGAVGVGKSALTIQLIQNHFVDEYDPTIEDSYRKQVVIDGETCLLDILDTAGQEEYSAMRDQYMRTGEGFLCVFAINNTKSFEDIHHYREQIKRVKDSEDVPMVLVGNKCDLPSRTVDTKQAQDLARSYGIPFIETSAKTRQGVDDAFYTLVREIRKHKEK
Chain of KRAS G12V (P62937 whole entry): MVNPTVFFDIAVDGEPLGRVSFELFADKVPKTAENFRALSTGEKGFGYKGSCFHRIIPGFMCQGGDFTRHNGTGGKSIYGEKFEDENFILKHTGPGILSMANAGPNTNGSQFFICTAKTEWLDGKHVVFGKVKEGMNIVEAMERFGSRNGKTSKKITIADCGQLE
Outline: (§2)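 First, compounds at a ten-point threefold dilution series (highest final concentration 30 μM) were incubated with nucleotide-loaded K-Ras, Cyclophilin A and BRAF RBD for 3 h at 25 °C. Next, detection antibodies were added for 1.5 h. Finally, IC50 was calculated from TR-FRET ratio decreases against DMSO controls.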

KRAS G12C = KRAS G12C (Homo sapiens, UniProt P01116+P62937, G12C); test: as above; format: biochemical
Chain of KRAS G12C (P01116 1-169 isoform P01116-2 G12C): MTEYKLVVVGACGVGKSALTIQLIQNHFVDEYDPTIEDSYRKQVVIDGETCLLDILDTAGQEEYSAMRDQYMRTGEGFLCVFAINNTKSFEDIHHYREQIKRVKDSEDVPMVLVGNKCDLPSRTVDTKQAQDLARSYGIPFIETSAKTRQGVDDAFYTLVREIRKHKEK
Chain of KRAS G12C (P62937 whole entry): as the sequence (P62937 whole entry) above
Outline: as §2

KRAS G12D = KRAS G12D (Homo sapiens, UniProt P01116+P62937, G12D); test: as above; format: biochemical
Chain of KRAS G12D (P01116 1-169 isoform P01116-2 G12D limits assumed): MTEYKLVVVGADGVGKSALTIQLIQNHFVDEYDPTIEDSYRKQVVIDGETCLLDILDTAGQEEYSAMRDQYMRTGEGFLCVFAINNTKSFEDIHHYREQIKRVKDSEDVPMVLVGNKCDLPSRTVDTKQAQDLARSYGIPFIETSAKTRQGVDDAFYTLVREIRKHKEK
Chain of KRAS G12D (P62937 whole entry): as the sequence (P62937 whole entry) above
Outline: as §2

KRAS G13D = KRAS G13D (Homo sapiens, UniProt P01116+P62937, G13D); test: as above; format: biochemical
Chain of KRAS G13D (P01116 1-169 isoform P01116-2 G13D limits assumed): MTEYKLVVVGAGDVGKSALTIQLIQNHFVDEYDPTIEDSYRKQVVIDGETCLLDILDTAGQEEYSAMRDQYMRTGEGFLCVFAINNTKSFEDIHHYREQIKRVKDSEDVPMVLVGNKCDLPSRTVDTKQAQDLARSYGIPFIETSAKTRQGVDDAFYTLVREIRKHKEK
Chain of KRAS G13D (P62937 whole entry): as the sequence (P62937 whole entry) above
Outline: as §2

NRAS G12C = NRAS G12C (Homo sapiens, UniProt P01111+P62937, G12C); test: as above; format: biochemical
Chain of NRAS G12C (P01111 whole entry G12C): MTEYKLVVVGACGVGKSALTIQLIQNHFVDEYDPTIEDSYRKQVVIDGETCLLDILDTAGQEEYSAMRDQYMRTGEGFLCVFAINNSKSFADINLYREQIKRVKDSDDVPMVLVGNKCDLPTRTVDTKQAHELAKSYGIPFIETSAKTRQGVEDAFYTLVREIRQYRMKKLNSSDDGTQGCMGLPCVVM
Chain of NRAS G12C (P62937 whole entry): as the sequence (P62937 whole entry) above

KRAS WT = KRAS WT (Homo sapiens, UniProt P01116+P62937); test: as above; format: biochemical
Chain of KRAS WT (P01116 1-169 isoform P01116-2 limits assumed): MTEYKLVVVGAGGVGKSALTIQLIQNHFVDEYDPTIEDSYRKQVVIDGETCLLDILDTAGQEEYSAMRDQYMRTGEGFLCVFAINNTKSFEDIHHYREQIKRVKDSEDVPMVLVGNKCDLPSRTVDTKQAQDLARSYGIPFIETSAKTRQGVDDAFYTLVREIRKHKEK
Chain of KRAS WT (P62937 whole entry): as the sequence (P62937 whole entry) above
Outline: as §2

KRAS G13C = KRAS G13C (Homo sapiens, UniProt P01116+P62937, G13C); test: as above; format: biochemical
Chain of KRAS G13C (P01116 1-169 isoform P01116-2 G13C): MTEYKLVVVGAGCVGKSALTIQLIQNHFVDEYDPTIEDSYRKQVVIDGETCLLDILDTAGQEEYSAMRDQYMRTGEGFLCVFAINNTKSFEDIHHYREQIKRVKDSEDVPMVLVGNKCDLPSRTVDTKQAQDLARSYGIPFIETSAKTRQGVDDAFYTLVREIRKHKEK
Chain of KRAS G13C (P62937 whole entry): as the sequence (P62937 whole entry) above
Outline: as §2

KRAS G12S = KRAS G12S (Homo sapiens, UniProt P01116+P62937, G12S); test: as above; format: biochemical
Chain of KRAS G12S (P01116 1-169 isoform P01116-2 G12S limits assumed): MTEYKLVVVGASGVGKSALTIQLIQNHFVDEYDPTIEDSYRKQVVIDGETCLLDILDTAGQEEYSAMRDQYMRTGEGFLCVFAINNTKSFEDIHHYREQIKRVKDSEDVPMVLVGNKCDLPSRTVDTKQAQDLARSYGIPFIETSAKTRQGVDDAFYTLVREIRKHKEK
Chain of KRAS G12S (P62937 whole entry): as the sequence (P62937 whole entry) above
Outline: as §2

[1] = KRAS G12V, read-out: KRAS G12V FRET data IC50
[2] = read-out: KRAS G12C FRET data, IC50
[3] = read-out: KRAS G12D FRET data, IC50
[4] = KRAS G13D, read-out: KRAS G13D FRET data IC50
[5] = NRAS G12C, read-out: NRAS G12C FRET data IC50
[6] = KRAS WT, read-out: KRAS WT FRET data IC50
[7] = read-out: KRAS G13C FRET data, IC50
[8] = read-out: KRAS G12S FRET data, IC50

IC50 (NCI-H358 (K-Ras G12C)) [µM]	IC50 (KRAS G12V; [1]) [µM]	IC50 (KRAS G12C; [2]) [µM]	IC50 (KRAS G12D; [3]) [µM]	IC50 (KRAS G13D; [4]) [µM]	IC50 (NRAS G12C; [5]) [µM]	IC50 (KRAS WT; [6]) [µM]	IC50 (KRAS G13C; [7]) [µM]	IC50 (KRAS G12S; [8]) [µM]	IC50 (KRAS G12C; KRAS G12C FRET data, IC50)	IC50 (KRAS G12D; KRAS G12D FRET data, IC50)	IC50 (KRAS G13D; KRAS G13D FRET data IC50, KRAS G13D)	IC50 (NRAS G12C; NRAS G12C FRET data IC50, NRAS G12C)	IC50 (KRAS WT; KRAS WT FRET data IC50, KRAS WT)	IC50 (KRAS G13C; KRAS G13C FRET data, IC50)	IC50 (KRAS G12V; KRAS G12V FRET data IC50, KRAS G12V)	IC50 (KRAS G12S; KRAS G12S FRET data, IC50)	SMILES	IC50 (Capan-1 (K-Ras G12V)) [µM]
–	1 to 10	0.1 to 1	0.1 to 1	1 to 10	0.1 to 1	0.1 to 1	0.1 to 1	1 to 10	–	–	–	–	–	–	–	–	CCn1c(-c2cccnc2[C@H](C)OC)c2c3cc(ccc31)-c1csc(n1)C[C@H](NC(=O)[C@H](C(C)C)N(C)C(=O)[C@H]1CCN(C(=O)CN)C1)C(=O)N1CCC[C@H](N1)C(=O)OCC(C)(C)C2 [Example A106]	1 to 10
0.01 to 0.1	–	–	–	–	0.01 to 0.1	–	–	–	–	–	–	–	–	–	–	–	CCn1c(-c2cccnc2[C@H](C)OC)c2c3cc(ccc31)-c1cc(O)cc(c1)C[C@H](NC(=O)[C@H](C(C)C)N(C)C(=O)[C@H]1CCN(C(=O)[C@]3(C)CCCN3C)C1)C(=O)N1CCC[C@H](N1)C(=O)OCC(C)(C)C2 [Example A342]	0.1 to 1
–	–	–	–	–	–	–	–	–	0.1 to 1 µM and 0.01 to 0.1 µM	1 to 10 µM and 0.01 to 0.1 µM	0.1 to 1 µM and 0.01 to 0.1 µM	1 to 10 µM and 0.01 to 0.1 µM	1 to 10 µM and 0.01 to 0.1 µM	0.1 to 1 µM and 0.01 to 0.1 µM	0.1 to 1 µM and > 10 µM	1 to 10 µM and 0.01 to 0.1 µM	CCn1c(-c2cccnc2[C@H](C)OC)c2c3cc(ccc31)-c1cc(O)cc(c1)C[C@H](NC(=O)[C@H](C(C)C)N(C)C(=O)[C@H]1CCNC1)C(=O)N1CCC[C@H](N1)C(=O)OCC(C)(C)C2 [Example A4]	> 10

More lines, now with the values behind:

SMILES	IC50 (NCI-H358 (K-Ras G12C)) [µM]	IC50 (KRAS G12V; [1]) [µM]	IC50 (KRAS G12C; [2]) [µM]	IC50 (KRAS G12D; [3]) [µM]	IC50 (KRAS G13D; [4]) [µM]	IC50 (NRAS G12C; [5]) [µM]	IC50 (KRAS WT; [6]) [µM]	IC50 (KRAS G13C; [7]) [µM]	IC50 (KRAS G12S; [8]) [µM]	IC50 (KRAS G12C; KRAS G12C FRET data, IC50)	IC50 (KRAS G12D; KRAS G12D FRET data, IC50)	IC50 (KRAS G13D; KRAS G13D FRET data IC50, KRAS G13D)	IC50 (NRAS G12C; NRAS G12C FRET data IC50, NRAS G12C)	IC50 (KRAS WT; KRAS WT FRET data IC50, KRAS WT)	IC50 (KRAS G13C; KRAS G13C FRET data, IC50)	IC50 (KRAS G12V; KRAS G12V FRET data IC50, KRAS G12V)	IC50 (KRAS G12S; KRAS G12S FRET data, IC50)	IC50 (Capan-1 (K-Ras G12V)) [µM]
CCn1c(-c2cccnc2[C@H](C)OC)c2c3cc(ccc31)-c1cc(O)cc(c1)C[C@H](NC(=O)[C@H](C(C)C)N(C)C(=O)[C@H]1C[C@H]1F)C(=O)N1CCC[C@H](N1)C(=O)OCC(C)(C)C2 [Example A162]	0.01 to 0.1	0.01 to 0.1	–	–	–	–	–	–	–	–	–	–	–	–	–	–	–	0.01 to 0.1
CCn1c(-c2cnccc2COC)c2c3cc(ccc31)-c1cc(O)cc(c1)C[C@H](NC(=O)[C@H](C(C)C)N(C)C(=O)[C@@H]1CN(C(C)=O)C[C@@H]1C(F)(F)F)C(=O)N1CCC[C@H](N1)C(=O)OCC(C)(C)C2 [Example A80]	–	1 to 10	0.1 to 1	0.1 to 1	0.1 to 1	0.1 to 1	0.1 to 1	0.1 to 1	0.1 to 1	–	–	–	–	–	–	–	–	1 to 10
CCn1c(-c2cccnc2[C@H](C)OC)c2c3cc(ccc31)-c1cc(O)cc(c1)C[C@H](NS(=O)(=O)CC1OCCC13CNC3)C(=O)N1CCC[C@H](N1)C(=O)OCC(C)(C)C2 (mixture of isomers) [Example A187]	–	> 10	> 10	> 10	> 10	> 10	> 10	> 10	> 10	–	–	–	–	–	–	–	–	> 10
C=C[C@@H]1C[C@]1(N)C(=O)N(C)[C@H](C(=O)N[C@H]1Cc2cc(O)cc(c2)-c2ccc3c(c2)c(c(-c2cccnc2[C@H](C)OC)n3CC)CC(C)(C)COC(=O)[C@@H]2CCCN(N2)C1=O)C(C)C [Example A149]	–	0.1 to 1	0.01 to 0.1	0.1 to 1	0.1 to 1	0.1 to 1	0.01 to 0.1	0.01 to 0.1	0.1 to 1	–	–	–	–	–	–	–	–	1 to 10
CCn1c(-c2cccnc2[C@@H]2CCCO2)c2c3cc(ccc31)-c1csc(n1)C[C@H](NC(=O)[C@H](C(C)C)N(C)C(=O)N1CC(N(C)C)C1)C(=O)N1CCC[C@H](N1)C(=O)OCC(C)(C)C2 (atropisomer, axis not shown) [Example A327]	–	> 10	> 10	> 10	> 10	> 10	> 10	> 10	> 10	–	–	–	–	–	–	–	–	1 to 10
